Experimental data as given in ChEMBL document CHEMBL1201862, “PubChem BioAssay data set” (2004).
Activity calls are given as the source filed them.

Tests used:
[1] = HEp-2 cell cytotoxicity, dose response, cytotoxicity control for RSV inhibitor project, HTS (AID 2410); format: functional; conditions: human respiratory syncytial virus
[2] = system: Vero; assay: cells; format: functional; conditions: Chlorocebus sabaeus
[3] = Luminescence Cell-Based Dose Retest to Confirm Inhibitors of Cancer Stem Cells. [Related pubchem assays (depositor defined):AID2717, AID2721]; format: functional; conditions: Homo sapiens
[4] = off-target signal loss in HeLa-CEM21 co-culture – HeLa F-luc CTL cells, cherry-picked, counter-screen for HIV-1 Env fusion inhibitor project, dose response (AID 652040); format: functional, cell-based;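 further: potency for signal decrease marking cytotoxic or nonspecific inhibition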
[5] = inhibitors of clade B AD8 Env fusion, dose response, cell-based, cherry-pick (AID 652062); format: functional;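 further: luciferase signal from cell-cell fusion driven by HIV-1 clade B AD8 Env; potency is for inhibitors of fusion seen as a drop in luminescence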
[6] = Shn3 3'UTR reporter inhibitors, dose response, cell-based, Clone20 osteoblasts, firefly luciferase, cherry-picked (AID 624132); format: functional;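 further: firefly luciferase luminescence from reporter carrying the Shn3 3'UTR in osteoblasts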
[7] = HepG2 cell cytotoxicity, dose response, cytotoxicity control for Shn3 inhibitor project, CellTiter-Glo, cherry-picked (AID 624134); format: functional, cell-based
[8] = cytotoxicity toward NIH3T3 fibroblasts, dose response, counter-screen, cell-based, ATP luminescence, mouse fibroblasts (AID 2010); format: functional;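 further: cells exposed to compound for about 90 hours before reading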
[9] = system: INS1; assay: beta cell apoptosis inhibitors, cytokine rescue, dose response, luminescence, retest (AID 449756); format: functional, cell-based; conditions: Rattus norvegicus;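 further: cell death triggered by IL-1 beta plus TNF-alpha plus IFN-gamma mixture; protective hits raise ATP signal compared with cytokine alone wells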
[10] = inhibitors of intracellular T. cruzi replication, confirmation, NIH3T3 host cells, beta-gal luminescence (AID 2044); format: functional, cell-based;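 further: intracellular parasites grown in NIH/3T3 mouse fibroblasts as host cells; luminescent beta-galactosidase reporter signal from transgenic T. cruzi replicating inside host cells; inhibitors lower the luminescence signal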
[11] = control 3'UTR Renilla luciferase suppression, dose response, counter-screen for Shn3 inhibitor project, cell-based, Clone20-Shn3RL, cherry-picked (AID 624133); format: functional
[12] = A Cell Based Secondary Assay To Explore Cytotoxicity of Compounds that Sensitize Mycobacterium Tuberculosis to Beta-Lactam Antibiotics.; format: functional
[13] = biological target: T1, Ubiquitin-conjugating enzyme E2 N (Homo sapiens, UniProt P61088); format: functional;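 further: Dose-response confirmation in a TR-FRET assay detecting UBC13-driven polyubiquitin chain formation, inhibition measured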
T1 sequence (P61088 whole entry): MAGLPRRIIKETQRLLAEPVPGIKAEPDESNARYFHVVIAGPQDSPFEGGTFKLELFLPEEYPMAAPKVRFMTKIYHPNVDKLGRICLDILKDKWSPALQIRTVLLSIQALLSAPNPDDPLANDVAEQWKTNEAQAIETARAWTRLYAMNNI

[14] = biological target: T2, Apoptotic protease-activating factor 1 (Homo sapiens, UniProt O14727); format: functional
T2 sequence (O14727 whole entry): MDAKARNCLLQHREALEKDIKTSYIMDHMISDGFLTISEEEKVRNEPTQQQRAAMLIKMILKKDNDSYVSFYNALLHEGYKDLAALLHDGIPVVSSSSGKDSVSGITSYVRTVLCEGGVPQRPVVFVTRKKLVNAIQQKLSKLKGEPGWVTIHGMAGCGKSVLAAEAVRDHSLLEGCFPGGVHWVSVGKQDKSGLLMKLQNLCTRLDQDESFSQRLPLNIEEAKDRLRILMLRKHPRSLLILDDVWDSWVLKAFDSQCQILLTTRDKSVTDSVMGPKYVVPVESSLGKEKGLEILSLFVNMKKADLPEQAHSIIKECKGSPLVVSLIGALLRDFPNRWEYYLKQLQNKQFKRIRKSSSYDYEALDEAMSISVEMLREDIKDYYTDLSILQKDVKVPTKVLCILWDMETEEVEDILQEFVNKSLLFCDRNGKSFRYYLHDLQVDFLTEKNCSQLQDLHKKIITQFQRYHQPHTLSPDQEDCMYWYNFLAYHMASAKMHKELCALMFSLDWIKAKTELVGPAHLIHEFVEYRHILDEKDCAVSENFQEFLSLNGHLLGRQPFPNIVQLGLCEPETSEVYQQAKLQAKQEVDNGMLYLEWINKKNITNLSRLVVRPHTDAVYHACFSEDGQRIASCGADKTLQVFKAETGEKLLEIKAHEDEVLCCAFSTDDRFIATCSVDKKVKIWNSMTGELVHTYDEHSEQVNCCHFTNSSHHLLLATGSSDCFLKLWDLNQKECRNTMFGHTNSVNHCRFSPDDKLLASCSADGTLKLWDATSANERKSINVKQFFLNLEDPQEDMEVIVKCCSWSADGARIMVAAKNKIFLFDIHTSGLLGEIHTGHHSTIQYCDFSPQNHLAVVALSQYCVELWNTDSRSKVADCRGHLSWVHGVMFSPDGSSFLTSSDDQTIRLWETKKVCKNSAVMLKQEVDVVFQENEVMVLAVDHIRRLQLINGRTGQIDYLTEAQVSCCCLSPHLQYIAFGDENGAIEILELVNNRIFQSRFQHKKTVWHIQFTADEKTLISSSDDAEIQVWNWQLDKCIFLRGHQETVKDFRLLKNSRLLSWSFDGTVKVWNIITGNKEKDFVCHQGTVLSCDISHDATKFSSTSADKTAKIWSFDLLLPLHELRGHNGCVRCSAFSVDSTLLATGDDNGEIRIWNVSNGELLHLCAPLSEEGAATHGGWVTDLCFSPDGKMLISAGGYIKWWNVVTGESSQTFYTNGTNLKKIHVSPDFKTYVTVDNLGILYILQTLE

[15] = HepG2 cell cytotoxicity, dose response, cytotoxicity control, plate reader, cherry-pick, antagonist series (AID 743416); format: functional, cell-based
[16] = A549 cell cytotoxicity, dose response, cytotoxicity control, plate reader, cherry-pick, antagonist series (AID 743412); format: functional, cell-based
[17] = HEK293 cell cytotoxicity, dose response, cytotoxicity control, plate reader, cherry-picked samples (AID 743446); format: functional, cell-based
[18] = LGR2 antagonists, dose response, cell-based, HEK293, CRE-luciferase reporter, cherry pick, set 2 (AID 743343); format: functional;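 further: transfected cells were stimulated with diluted bursicon conditioned medium after compound addition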
[19] = ZM109 Env clade C HIV-1 fusion inhibitors, dose response, HeLa effector, CEM target cells, luciferase, cherry-pick (AID 652058); format: functional, cell-based
[20] = inhibitors of HIV Env-driven cell fusion, dose response, cherry-pick (AID 652057); format: functional, cell-based
[21] = MC4R antagonists, dose response, counter-screen for LGR2 antagonist project, cell-based, plate reader, cherry pick (AID 743444); format: functional;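 further: transfected HEK 293 cells stimulated with alpha-MSH peptide; potency of inhibitors of the alpha-MSH evoked signal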
[22] = cytotoxicity toward DRD oncogenic fibroblasts, dose response, cell-based, non-viral oncogenic, luminescence (AID 1934); format: functional; conditions: Homo sapiens
[23] = biological target: T3, Microphthalmia-associated transcription factor (Homo sapiens, UniProt O75030); assay: TRPM1 promoter luciferase signal decrease, dose response, MITF inhibitor project, cell-based, SK-MEL-5, cherry-picked, set 3 (AID 493073); format: functional
T3 sequence (O75030 whole entry): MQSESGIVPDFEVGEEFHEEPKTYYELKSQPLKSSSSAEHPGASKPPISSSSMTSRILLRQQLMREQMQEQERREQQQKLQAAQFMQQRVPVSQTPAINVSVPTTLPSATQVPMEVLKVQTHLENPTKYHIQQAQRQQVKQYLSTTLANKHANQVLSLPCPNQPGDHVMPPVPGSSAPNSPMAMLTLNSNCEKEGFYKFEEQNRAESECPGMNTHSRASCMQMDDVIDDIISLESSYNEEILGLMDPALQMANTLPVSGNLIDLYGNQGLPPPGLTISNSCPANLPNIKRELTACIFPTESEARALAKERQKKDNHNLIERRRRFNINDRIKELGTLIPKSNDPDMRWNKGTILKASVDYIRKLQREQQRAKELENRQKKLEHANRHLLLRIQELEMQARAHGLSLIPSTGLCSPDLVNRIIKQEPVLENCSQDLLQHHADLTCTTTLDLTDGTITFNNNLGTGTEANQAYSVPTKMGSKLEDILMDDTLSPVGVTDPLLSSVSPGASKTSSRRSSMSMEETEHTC

[24] = system: BJ; assay: cytotoxicity toward BJ-TERT fibroblasts, dose response, cell-based, RAS-independent, luminescence (AID 1933); format: functional; conditions: Homo sapiens
[25] = system: BJ; assay: cells; format: functional, cell-based; conditions: Homo sapiens
[26] = biological target: T4, Caspase-6 (Homo sapiens, UniProt P55212); assay: human caspase-6 inhibitors, dose response, biochemical, VEID-R110 fluorescence, cherry-pick (AID 720632)
T4 sequence (P55212 whole entry): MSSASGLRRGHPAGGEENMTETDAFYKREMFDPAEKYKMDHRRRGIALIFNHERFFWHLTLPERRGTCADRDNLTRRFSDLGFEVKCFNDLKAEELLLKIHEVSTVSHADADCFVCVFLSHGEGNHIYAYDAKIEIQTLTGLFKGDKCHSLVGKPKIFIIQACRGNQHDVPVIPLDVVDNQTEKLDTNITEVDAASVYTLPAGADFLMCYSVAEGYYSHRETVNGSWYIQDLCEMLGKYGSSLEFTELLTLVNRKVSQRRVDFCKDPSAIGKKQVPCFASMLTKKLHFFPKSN

[27] = system: BJ; assay: cytotoxicity toward BJ-TERT-LT-ST fibroblasts, dose response, cell-based, RAS-independent, luminescence (AID 1935); format: functional; conditions: Homo sapiens;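 further: BJ fibroblasts immortalized with TERT plus LT and ST oncogenes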
[28] = biological target: T5, High affinity choline transporter 1 (Homo sapiens, UniProt Q9GZV3); assay: CHT inhibitors, dose response, cell-based, 5-point CRC, membrane potential dye (AID 504840); format: functional
T5 sequence (Q9GZV3 whole entry): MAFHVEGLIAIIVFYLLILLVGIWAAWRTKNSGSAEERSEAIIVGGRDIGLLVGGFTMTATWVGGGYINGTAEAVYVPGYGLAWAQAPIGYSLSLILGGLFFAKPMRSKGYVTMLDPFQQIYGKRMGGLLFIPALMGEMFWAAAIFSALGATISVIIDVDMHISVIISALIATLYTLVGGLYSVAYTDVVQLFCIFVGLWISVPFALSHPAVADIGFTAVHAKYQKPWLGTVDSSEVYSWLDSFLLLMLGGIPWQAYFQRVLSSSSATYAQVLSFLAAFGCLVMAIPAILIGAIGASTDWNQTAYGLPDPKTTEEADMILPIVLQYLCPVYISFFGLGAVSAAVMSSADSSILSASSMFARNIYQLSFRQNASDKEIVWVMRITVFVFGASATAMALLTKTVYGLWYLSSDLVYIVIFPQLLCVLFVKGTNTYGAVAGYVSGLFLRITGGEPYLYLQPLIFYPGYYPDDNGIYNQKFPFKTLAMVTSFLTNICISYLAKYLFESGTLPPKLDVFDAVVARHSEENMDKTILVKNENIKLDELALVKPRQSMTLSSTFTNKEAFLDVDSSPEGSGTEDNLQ

## CCOc1ccc(/C=C/C(O)=C2/C(=O)N(C)C3(C)CC2c2ccccc2O3)cc1OC (stereo not drawn)
[1]
  CC50: 2.92 µM (active)
[2]
  CC50: 11.6 µM (active)
[3]
  AC50: 2.44 µM (active)

## CCOc1ccccc1CNc1ncnc2ccc(-c3c(C)noc3C)cc12
[3]
  AC50: 21.6 µM (active)
[4]
  AC50: > 70 µM (inactive)
[5]
  AC50: 44.5 µM (active)

## CCOc1ccc(-[n+]2c(-c3ccccc3)cn3c2CCC3)cc1
[6]
  AC50: 0.526 µM (active)
[7]
  AC50: 49 µM (active)
[8]
  EC50: 24.2 µM (active)
[9]
  AC50: 1.43 µM (active)
[10]
  EC50: 0.351 µM (active)
[11]
  AC50: 0.392 µM (active)

## CC(C)CC(=O)NC(=S)Nc1ccc(N2CCN(C(=O)c3cccs3)CC2)cc1
[6]
  AC50: 2.54 µM (active)
[7]
  AC50: 41.2 µM (active)
[12]
  CC50: 18.2 µM (active)
[11]
  AC50: > 70 µM (inactive)

## c1cc2c(cc1C1CCCCC1)c1c3n2CCN=C3CCC1
[2]
  CC50: > 25 µM (active)

## CCOc1cc(/C=C/C(=O)Nc2ccc(C(=O)NCCN(CC)CC)cc2)ccc1OCC(C)C
[13]
  IC50: > 20 µM (inactive)
[14]
  IC50: 28.5 µM (active)
[15]
  AC50: 7.47 µM (active)
[16]
  AC50: 7.77 µM (active)
[17]
  AC50: 7.83 µM (active)
[18]
  AC50: 35 µM (active)

## COc1ccc(Cl)cc1NC(=O)CN(C1CCCCC1)S(C)(=O)=O
[19]
  AC50: 5.49 µM (active)
[4]
  AC50: 4.33 µM (active)
[5]
  AC50: 2.69 µM (active)
[20]
  AC50: 3.13 µM (active)

## O=S(=O)(c1ccc(F)cc1)c1snnc1-c1ccccc1
[21]
  AC50: 5.8 µM (active)
[22]
  EC50: 7.55 µM (active)
[23]
  AC50: 15.1 µM (active)
[24]
  EC50: 4.69 µM (inconclusive)
[15]
  AC50: 46.5 µM (active)
[25]
  EC50: 6.66 µM (inconclusive)
[16]
  AC50: 11.1 µM (active)
[2]
  CC50: 6.75 µM (active)
[26]
  AC50: 6.26 µM (active)
[17]
  AC50: 4.15 µM (active)
[27]
  EC50: 6.51 µM (inconclusive)
[18]
  AC50: 9.39 µM (active)

## CN(Cc1cccs1)c1ncnc2sccc12
[28]
  IC50: 4.57 µM (active)
[19]
  AC50: 1.3 µM (active)
[4]
  AC50: 56.6 µM (active)
[5]
  AC50: 16.9 µM (active)
